Source: ChEMBL document CHEMBL4002640, “Discovery of MK-1832, a Kv1.5 inhibitor with improved selectivity and pharmacokinetics” (Bioorg Med Chem Lett, 2017)
Blank lines part the entries; values can stand above or below the compound they belong to. Calls of active or inactive are those of the source.

Experiments:
[1] = Drug metabolism in human hepatocytes assessed as oxidation of the A/B ring nitrogens up to 3 hrs by mass spectrometry; assay type: ADME, cell-based, Hepatocyte
[2] = Drug metabolism in human hepatocytes assessed as oxidation of the ethane at the center up to 3 hrs by mass spectrometry; assay type: ADME, cell-based, Hepatocyte
[3] = Metabolic stability in human hepatocytes up to 3 hrs by mass spectrometry; assay type: ADME, cell-based, Hepatocyte
[4] = biological target: T1, Potassium voltage-gated channel subfamily A member 5 (Homo sapiens, UniProt P22460); assay: Inhibition of Kv1.5 (unknown origin)
T1 sequence (P22460 whole entry): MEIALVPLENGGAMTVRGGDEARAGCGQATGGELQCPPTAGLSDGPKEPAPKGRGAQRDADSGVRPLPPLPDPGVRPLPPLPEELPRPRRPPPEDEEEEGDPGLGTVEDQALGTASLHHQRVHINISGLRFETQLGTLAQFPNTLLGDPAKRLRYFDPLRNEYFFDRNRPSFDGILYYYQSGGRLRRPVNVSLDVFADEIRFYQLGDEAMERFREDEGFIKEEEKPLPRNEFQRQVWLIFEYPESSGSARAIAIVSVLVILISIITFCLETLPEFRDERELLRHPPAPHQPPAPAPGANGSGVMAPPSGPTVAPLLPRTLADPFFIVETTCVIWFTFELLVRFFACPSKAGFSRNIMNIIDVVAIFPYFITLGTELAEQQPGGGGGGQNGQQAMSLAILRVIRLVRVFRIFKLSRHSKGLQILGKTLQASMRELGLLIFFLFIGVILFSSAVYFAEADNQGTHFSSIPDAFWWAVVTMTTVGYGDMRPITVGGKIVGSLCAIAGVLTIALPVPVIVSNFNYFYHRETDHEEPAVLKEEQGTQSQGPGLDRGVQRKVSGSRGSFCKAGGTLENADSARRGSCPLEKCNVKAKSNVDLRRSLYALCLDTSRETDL

KCNQ1/KCNE1 (IKs) [5] = biological target: T2, KCNQ1/KCNE1 (IKs) (Homo sapiens, UniProt P15382+P51787); assay: Inhibition of human KCNQ1/KCNE1 expressed in HEK293 cells assessed as reduction in slowly activating delayed rectifier cardiac potassium current at 10 uM by patch clamp electrophysiology method; assay type: cell-based; conditions: HEK293 cells expressing human KCNQ1/KCNE1
T2 sequence (P51787 whole entry): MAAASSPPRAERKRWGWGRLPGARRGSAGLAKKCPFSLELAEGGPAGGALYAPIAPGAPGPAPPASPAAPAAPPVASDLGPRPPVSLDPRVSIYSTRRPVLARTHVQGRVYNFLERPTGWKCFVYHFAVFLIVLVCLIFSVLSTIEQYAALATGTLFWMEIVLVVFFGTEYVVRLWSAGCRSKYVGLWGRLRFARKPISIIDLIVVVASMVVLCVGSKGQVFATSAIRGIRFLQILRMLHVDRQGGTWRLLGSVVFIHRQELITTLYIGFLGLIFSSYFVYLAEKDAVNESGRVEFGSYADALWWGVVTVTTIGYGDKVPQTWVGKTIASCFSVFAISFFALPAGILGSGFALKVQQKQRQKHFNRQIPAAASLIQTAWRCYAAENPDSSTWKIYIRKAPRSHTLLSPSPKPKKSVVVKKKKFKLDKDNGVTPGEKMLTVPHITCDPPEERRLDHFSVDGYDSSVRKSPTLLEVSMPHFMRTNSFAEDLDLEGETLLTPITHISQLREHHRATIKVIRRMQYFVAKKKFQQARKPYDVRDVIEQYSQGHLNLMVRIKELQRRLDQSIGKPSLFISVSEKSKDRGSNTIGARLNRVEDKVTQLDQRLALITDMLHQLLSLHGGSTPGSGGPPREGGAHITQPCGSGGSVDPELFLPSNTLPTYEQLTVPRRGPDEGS

[6] = biological target: T3, A-type voltage-gated potassium channel KCND3 (Homo sapiens, UniProt Q9UK17); assay: Inhibition of Kv4.3 (unknown origin) assessed as reduction in transient outward potassium current by high throughput clamp method
T3 sequence (Q9UK17 whole entry): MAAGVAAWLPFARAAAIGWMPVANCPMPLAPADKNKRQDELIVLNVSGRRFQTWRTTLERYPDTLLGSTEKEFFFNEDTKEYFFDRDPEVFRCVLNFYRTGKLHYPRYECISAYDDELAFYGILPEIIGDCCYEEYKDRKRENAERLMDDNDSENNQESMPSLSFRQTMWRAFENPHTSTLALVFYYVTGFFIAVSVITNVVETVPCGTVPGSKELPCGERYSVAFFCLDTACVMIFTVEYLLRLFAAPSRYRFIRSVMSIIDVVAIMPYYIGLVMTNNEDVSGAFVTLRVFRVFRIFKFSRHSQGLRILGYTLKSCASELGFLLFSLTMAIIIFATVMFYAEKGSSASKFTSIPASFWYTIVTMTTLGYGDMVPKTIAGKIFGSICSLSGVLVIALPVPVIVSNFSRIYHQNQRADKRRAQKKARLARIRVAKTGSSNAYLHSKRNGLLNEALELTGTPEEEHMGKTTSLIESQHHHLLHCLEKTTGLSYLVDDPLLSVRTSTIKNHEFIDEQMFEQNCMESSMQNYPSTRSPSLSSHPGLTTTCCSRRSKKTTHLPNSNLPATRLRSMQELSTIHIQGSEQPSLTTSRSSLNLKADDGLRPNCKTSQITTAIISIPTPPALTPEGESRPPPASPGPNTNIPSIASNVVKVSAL

[7] = biological target: T4, Voltage-gated inwardly rectifying potassium channel KCNH2 (Homo sapiens, UniProt Q12809); assay: Inhibition of human ERG expressed in CHOK1 cells assessed as reduction in rapidly activating delayed rectifier cardiac potassium current by whole-cell voltage-patch clamp assay; assay type: cell-based
T4 sequence (Q12809 whole entry): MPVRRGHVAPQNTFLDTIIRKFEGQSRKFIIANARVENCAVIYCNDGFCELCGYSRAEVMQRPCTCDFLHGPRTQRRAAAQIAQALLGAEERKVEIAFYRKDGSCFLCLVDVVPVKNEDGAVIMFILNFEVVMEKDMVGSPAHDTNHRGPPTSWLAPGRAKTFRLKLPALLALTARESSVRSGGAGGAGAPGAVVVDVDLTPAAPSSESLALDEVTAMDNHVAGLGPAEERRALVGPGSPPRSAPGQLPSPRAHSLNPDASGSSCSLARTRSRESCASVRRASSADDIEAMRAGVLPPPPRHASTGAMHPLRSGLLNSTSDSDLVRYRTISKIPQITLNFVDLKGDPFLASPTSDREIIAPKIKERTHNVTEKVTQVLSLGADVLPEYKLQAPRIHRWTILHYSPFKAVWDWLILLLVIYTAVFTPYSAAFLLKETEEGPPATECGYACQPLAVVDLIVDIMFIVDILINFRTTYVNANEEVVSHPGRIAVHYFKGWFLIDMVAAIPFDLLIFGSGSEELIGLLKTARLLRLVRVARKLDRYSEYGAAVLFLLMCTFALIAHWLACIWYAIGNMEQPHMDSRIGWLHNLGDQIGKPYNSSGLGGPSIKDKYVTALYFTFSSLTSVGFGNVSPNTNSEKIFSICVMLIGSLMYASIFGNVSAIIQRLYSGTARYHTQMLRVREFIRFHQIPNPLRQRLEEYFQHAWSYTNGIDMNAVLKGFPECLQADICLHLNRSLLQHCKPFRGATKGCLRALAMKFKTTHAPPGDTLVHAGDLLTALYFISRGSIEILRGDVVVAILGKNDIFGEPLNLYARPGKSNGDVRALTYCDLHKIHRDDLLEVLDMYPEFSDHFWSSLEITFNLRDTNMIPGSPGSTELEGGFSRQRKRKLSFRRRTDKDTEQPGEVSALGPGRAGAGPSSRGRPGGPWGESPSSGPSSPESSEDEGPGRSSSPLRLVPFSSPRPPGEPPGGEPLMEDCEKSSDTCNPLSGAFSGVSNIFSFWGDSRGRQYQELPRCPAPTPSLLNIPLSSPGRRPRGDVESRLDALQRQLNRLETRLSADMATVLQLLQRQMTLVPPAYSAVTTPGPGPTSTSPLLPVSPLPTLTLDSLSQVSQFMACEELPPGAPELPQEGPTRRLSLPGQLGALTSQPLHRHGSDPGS

Canis familiaris [8] = assay: Selectivity index, ratio of compound effect for anti-atrial fibrillation activity in iv dosed anesthetized Mongrel dog assessed as increase in atrial refractory period to compound effect on ventricular refractory period in iv dosed anesthetized Mongrel dog; parameters: species or system Canis lupus familiaris
[9] = biological target: T4, Voltage-gated inwardly rectifying potassium channel KCNH2; assay: Displacement of [3H]-MK499 from human ERG IKr channel expressed in HEK293 cell membranes
Canis familiaris [10] = assay: Anti-atrial fibrillation activity in iv dosed anesthetized Mongrel dog assessed as increase in atrial refractory period at 400 ms of basic cycle length administered as 60 mins infusion measured up to 60 mins by electrophysiology method; assay type: functional, Canis lupus familiaris
[11] = biological target: Sodium channel protein type 5 subunit alpha (Homo sapiens, UniProt Q14524); assay: Inhibition of SCN5a (unknown origin) assessed as reduction in sodium current at 10 uM by voltage/ion probe reader method
Chain of Sodium channel protein type 5 subunit alpha (Q14524 whole entry): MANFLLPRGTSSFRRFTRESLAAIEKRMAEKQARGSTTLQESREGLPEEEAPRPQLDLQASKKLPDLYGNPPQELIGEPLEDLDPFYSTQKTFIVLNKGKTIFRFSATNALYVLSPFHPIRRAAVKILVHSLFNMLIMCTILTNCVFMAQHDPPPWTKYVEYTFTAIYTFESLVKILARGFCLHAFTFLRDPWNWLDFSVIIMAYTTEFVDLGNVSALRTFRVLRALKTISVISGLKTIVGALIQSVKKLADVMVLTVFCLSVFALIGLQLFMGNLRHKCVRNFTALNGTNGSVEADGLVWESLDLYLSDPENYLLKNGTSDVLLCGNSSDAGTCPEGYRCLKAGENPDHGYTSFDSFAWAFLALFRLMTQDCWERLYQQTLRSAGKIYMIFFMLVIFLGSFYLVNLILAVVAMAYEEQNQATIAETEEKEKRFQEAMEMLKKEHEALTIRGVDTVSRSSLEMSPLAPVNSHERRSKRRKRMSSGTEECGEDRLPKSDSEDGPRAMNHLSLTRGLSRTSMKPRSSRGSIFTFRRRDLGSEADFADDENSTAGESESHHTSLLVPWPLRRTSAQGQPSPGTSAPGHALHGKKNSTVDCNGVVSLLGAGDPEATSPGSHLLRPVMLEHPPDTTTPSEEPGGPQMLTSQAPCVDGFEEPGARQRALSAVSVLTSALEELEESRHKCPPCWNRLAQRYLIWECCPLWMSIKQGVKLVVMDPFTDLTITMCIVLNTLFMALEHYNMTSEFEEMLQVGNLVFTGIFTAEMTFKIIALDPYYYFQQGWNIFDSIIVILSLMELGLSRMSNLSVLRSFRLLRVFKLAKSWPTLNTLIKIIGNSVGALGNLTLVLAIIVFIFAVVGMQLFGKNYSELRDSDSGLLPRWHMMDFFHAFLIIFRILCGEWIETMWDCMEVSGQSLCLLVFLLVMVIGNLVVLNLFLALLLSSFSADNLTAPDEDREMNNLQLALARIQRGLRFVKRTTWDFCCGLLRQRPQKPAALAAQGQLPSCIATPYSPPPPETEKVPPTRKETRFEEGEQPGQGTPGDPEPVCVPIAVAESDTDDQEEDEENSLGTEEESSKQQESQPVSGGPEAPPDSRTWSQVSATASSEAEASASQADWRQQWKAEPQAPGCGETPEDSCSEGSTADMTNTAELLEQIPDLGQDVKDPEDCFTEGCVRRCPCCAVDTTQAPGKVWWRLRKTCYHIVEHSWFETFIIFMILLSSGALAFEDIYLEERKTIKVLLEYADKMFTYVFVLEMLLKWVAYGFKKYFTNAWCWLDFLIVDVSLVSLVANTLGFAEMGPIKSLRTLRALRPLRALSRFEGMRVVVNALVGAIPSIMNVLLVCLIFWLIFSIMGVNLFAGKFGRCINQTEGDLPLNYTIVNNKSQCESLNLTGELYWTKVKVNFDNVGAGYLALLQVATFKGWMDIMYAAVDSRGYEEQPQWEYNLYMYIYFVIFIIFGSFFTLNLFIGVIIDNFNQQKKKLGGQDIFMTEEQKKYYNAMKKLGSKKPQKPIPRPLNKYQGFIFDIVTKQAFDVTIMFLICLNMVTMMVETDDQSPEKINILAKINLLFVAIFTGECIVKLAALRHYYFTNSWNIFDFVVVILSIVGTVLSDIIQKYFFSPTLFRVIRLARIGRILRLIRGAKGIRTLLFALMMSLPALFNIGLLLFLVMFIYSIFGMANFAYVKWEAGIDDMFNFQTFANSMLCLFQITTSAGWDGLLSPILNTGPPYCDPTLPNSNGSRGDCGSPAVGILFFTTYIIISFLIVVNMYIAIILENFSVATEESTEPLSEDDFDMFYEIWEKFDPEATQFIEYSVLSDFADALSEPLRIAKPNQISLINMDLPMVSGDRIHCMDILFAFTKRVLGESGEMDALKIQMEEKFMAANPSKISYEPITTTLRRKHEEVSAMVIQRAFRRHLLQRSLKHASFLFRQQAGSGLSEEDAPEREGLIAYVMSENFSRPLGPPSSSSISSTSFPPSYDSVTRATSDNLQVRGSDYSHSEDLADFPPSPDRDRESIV

[12] = biological target: Voltage-gated potassium channel, IKs; KCNQ1(Kv7.1)/KCNE1(MinK) (Homo sapiens, UniProt P15382+P51787); assay: Inhibition of human KCNQ1/KCNE1 expressed in HEK293 cells assessed as reduction in slowly activating delayed rectifier cardiac potassium current by patch clamp electrophysiology method; assay type: cell-based
[13] = Selectivity index, ratio of IC50 for human KCNQ1/KCNE1 IKs channel expressed in HEK293 cells to IC50 for Kv1.5 IKur channel in human atrial myocytes
[14] = biological target: T1, Potassium voltage-gated channel subfamily A member 5; assay: Inhibition of Kv1.5 mediated ultra-rapid delayed rectifier current Ikur in human atrial myocytes by voltage-patch clamp electrophysiology method; assay type: cell-based
Canis familiaris [15] = assay: Effect on ventricular refractory period in iv dosed anesthetized Mongrel dog assessed as threshold change in ventricular refractory period at 400 ms of basic cycle length administered as 60 mins infusion measured up to 60 mins by electrophysiology method; assay type: ADME, organism-based, Canis lupus familiaris; conditions: in vivo, 1 h
Homo sapiens = species on record: Homo sapiens; assay: Substrate activity at human P-gp assessed as efflux ratio
[16] = Clearance in rhesus monkey; assay type: ADME, Macaca mulatta; conditions: in vivo
[17] = Clearance in rat; assay type: ADME; conditions: in vivo
[18] = Protein binding in dog plasma; assay type: ADME, cell-free, Canis lupus familiaris; conditions: read-out: PPB (converted)
[19] = Volume of distribution at steady state in dog; assay type: ADME, Canis lupus familiaris; conditions: in vivo, read-out: Vdss
Canis familiaris [20] = assay: Anti-atrial fibrillation activity in anesthetized Mongrel dog assessed as increase in atrial refractory period at 400 ms of basic cycle length at 0.3 to 100 ug/kg/min, iv administered as 60 mins infusion measured up to 60 mins by electrophysiology method; assay type: functional, organism-based; conditions: Canis lupus familiaris
[21] = Protein binding in rhesus monkey plasma; assay type: ADME, cell-free, Macaca mulatta; conditions: read-out: PPB (converted)
[22] = Protein binding in rat plasma; assay type: ADME, cell-free; conditions: read-out: PPB (converted)
[23] = Oral bioavailability in rhesus monkey; assay type: ADME, organism-based, Macaca mulatta; conditions: in vivo
KCNQ1/KCNE1 (IKs) [24] = biological target: T2, KCNQ1/KCNE1 (IKs); assay: Inhibition of human KCNQ1/KCNE1 expressed in HEK293 cells assessed as reduction in slowly activating delayed rectifier cardiac potassium current at 30 uM by patch clamp electrophysiology method; assay type: cell-based; conditions: HEK293 cells expressing human KCNQ1/KCNE1
[25] = Oral bioavailability in rat; assay type: ADME, organism-based; conditions: in vivo
Canis familiaris [26] = assay: Toxicity in anesthetized Mongrel dog assessed as effect on ECG at 0.3 to 100 ug/kg/min, iv administered as 60 mins infusion measured up to 60 mins by electrophysiology method; assay type: organism-based, Canis lupus familiaris; conditions: in vivo, 1 h
[27] = Volume of distribution at steady state in rhesus monkey; assay type: ADME, Macaca mulatta; conditions: in vivo, read-out: Vdss
Canis familiaris [28] = assay: Toxicity in anesthetized Mongrel dog assessed as effect on mean arterial pressure at 0.3 to 100 ug/kg/min, iv administered as 60 mins infusion measured up to 60 mins by electrophysiology method; assay type: organism-based, Canis lupus familiaris; conditions: in vivo, 1 h
[29] = Terminal half-life in rat; assay type: ADME; conditions: in vivo, read-out: beta t1/2 (converted)
Canis familiaris [30] = assay: Toxicity in anesthetized Mongrel dog assessed as effect on ventricular refractory period at 0.3 to 100 ug/kg/min, iv administered as 60 mins infusion measured up to 60 mins by electrophysiology method; assay type: organism-based, Canis lupus familiaris; conditions: in vivo, 1 h
Canis familiaris [31] = assay: Toxicity in anesthetized Mongrel dog assessed as effect on PR interval at 0.3 to 100 ug/kg/min, iv administered as 60 mins infusion measured up to 60 mins by electrophysiology method; assay type: organism-based, Canis lupus familiaris; conditions: in vivo, 1 h
[32] = Volume of distribution at steady state in rat; assay type: ADME; conditions: in vivo, read-out: Vdss
[33] = Terminal half-life in dog; assay type: ADME, Canis lupus familiaris; conditions: in vivo, read-out: beta t1/2 (converted)
[34] = Terminal half-life in rhesus monkey; assay type: ADME, Macaca mulatta; conditions: in vivo, read-out: beta t1/2 (converted)
Canis familiaris [35] = assay: Toxicity in anesthetized Mongrel dog assessed as effect on QRS interval at 0.3 to 100 ug/kg/min, iv administered as 60 mins infusion measured up to 60 mins by electrophysiology method; assay type: organism-based, Canis lupus familiaris; conditions: in vivo, 1 h
[36] = Oral bioavailability in dog; assay type: ADME, organism-based, Canis lupus familiaris; conditions: in vivo
[37] = Clearance in dog; assay type: ADME, Canis lupus familiaris; conditions: in vivo
Canis familiaris [38] = assay: Toxicity in anesthetized Mongrel dog assessed as effect on heart rate at 0.3 to 100 ug/kg/min, iv administered as 60 mins infusion measured up to 60 mins by electrophysiology method; assay type: organism-based, Canis lupus familiaris; conditions: in vivo, 1 h
Canis familiaris [39] = assay: Toxicity in anesthetized Mongrel dog assessed as effect on QTc interval at 0.3 to 100 ug/kg/min, iv administered as 60 mins infusion measured up to 60 mins by electrophysiology method; assay type: organism-based, Canis lupus familiaris; conditions: in vivo, 1 h

SMILES: CN(C)C(=O)c1cccc(-c2ccc(F)cc2CC(c2cccnc2)c2cccnc2)c1
- Drug metabolism [1]: Metabolite_Detected
- Drug metabolism [2]: Metabolite_Detected
- Stability [3]: Unstable

SMILES: OC(Cc1cccnc1-c1cccc(C(F)(F)F)c1)(c1cccnc1F)c1cccnc1F
- IC50 [4]: 195 nM
- Stability [3]: Stable
- inhibition at 10 µM (KCNQ1/KCNE1 (IKs) [5]): 16%

SMILES: N#Cc1cccc(-c2cc(F)ccc2CC(c2cccnc2)c2cccnc2)c1
- Ratio (Homo sapiens): 0.9
- IC50 [9]: 10200 nM
- IC50 [4]: 136 nM
- inhibition at 10 µM (KCNQ1/KCNE1 (IKs) [5]): 47%

SMILES: O[C@@H](c1cccnc1-c1cc(Cl)cc(Cl)c1)C(c1cccnc1)c1cccnc1
- clearance [16]: 14.3 mL/min/kg
- clearance [17]: 16.7 mL/min/kg
- fraction unbound [18]: 0.16
- IC50 [6]: 8300 nM
- Vd [19]: 0.81 L/kg
- Activity (Canis familiaris [20]): Active
- fraction unbound [21]: 0.08
- Ratio (Homo sapiens): 30
- IC50 [7]: 128000 nM
- Selectivity Index (Canis familiaris [8]): >1800
- fraction unbound [22]: 0.21
- bioavailability [23]: 21%
- inhibition at 30 µM (KCNQ1/KCNE1 (IKs) [24]): 7%
- bioavailability [25]: 34%
- Activity (Canis familiaris [26]): Non-Toxic
- Vd [27]: 0.99 L/kg
- Activity (Canis familiaris [28]): Non-Toxic
- half-life [29]: 1.6 h
- Activity (Canis familiaris [30]): Non-Toxic
- Activity (Canis familiaris [31]): Non-Toxic
- IC50 [9]: > 30000 nM
- EC10 (Canis familiaris [10]): 14 nM
- inhibition (INH) [11]: Not Active
- Vd [32]: 1.59 L/kg
- Ratio IC50 [13]: >3000
- half-life [33]: 2.6 h
- IC50 [4]: 29 to 2920 nM
- half-life [34]: 1 h
- Stability [3]: Unstable
- inhibition at 10 µM (KCNQ1/KCNE1 (IKs) [5]): 5.7%
- IC50 [14]: 11 nM
- Activity (Canis familiaris [35]): Non-Toxic
- bioavailability [36]: 93%
- clearance [37]: 3.7 mL/min/kg
- Activity (Canis familiaris [38]): Non-Toxic
- Activity (Canis familiaris [15]): > 25 µM
- Activity (Canis familiaris [39]): Non-Toxic

SMILES: Nc1cccc(C(c2cccnc2)C(O)c2cccnc2-c2cc(Cl)cc(Cl)c2)n1 (mixture of isomers)
- Ratio (Homo sapiens): 3.4
- IC50 [9]: > 30000 nM
- IC50 [4]: 153 nM
- inhibition at 10 µM (KCNQ1/KCNE1 (IKs) [5]): 20%

Now from value to compound, other results behind:

- IC50 [6]: 2300 nM
- IC50 [12]: 790 nM
- IC50 [4]: 9 nM
- Stability [3]: Stable
- IC50 [14]: 11 nM
- Activity (Canis familiaris [15]): 6 to 7 µM
SMILES: CS(=O)(=O)Nc1cccc([C@H](c2ccc(F)cc2)C(c2cccnc2)c2cccnc2)n1
- IC50 [7]: 110000 nM
- Selectivity Index (Canis familiaris [8]): 210
- IC50 [9]: > 30000 nM
- EC10 (Canis familiaris [10]): 31 nM
- inhibition (INH) [11]: Not Active
- Ratio IC50 [13]: 70

- Ratio (Homo sapiens): 6.8
- IC50 [4]: 84 nM
- inhibition at 10 µM (KCNQ1/KCNE1 (IKs) [5]): 10%
SMILES: OC(Cc1cccnc1-c1cc(Cl)cc(Cl)c1)(c1cccnc1)c1cccnc1
- IC50 [9]: > 30000 nM
